Assay results from ChEMBL document CHEMBL1201862, “PubChem BioAssay data set” (2004).
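Tested at 5 concentrations; 48 h exposure; 96-well plates; endpoints linearly interpolated, else capped at highest concentration. GI50 = concentration required for 50% inhibition of growth.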 The source made the active and inactive calls. Cut-off read from the data, not from the text of the source: active = GI50 up to about 1.1 µM and inactive = higher.

Experiments:
Assay in all cases: inhibition of tumour cell growth, NCI panel, 48 h
COLO 205 = system: COLO 205
SK-OV-3 = system: SK-OV-3
OVCAR-8 = system: OVCAR-8
OVCAR-3 = system: OVCAR-3
HT-29 = system: HT-29
SF-268 = system: SF-268
M14 = system: M14
UACC-62 = system: UACC-62
UO-31 = system: UO-31
SNB-19 = system: SNB-19
SF-539 = system: SF-539
SK-MEL-5 = system: SK-MEL-5
HL-60 = system: HL-60
SR = system: SR
A498 = system: A498
NCI-H522 = system: NCI-H522

Measured: GI50

OCCSCC/C(=N\N=C(/CCSCCO)c1ccccc1)c1ccccc1
inactive: COLO 205 > 100 µM | SK-OV-3 > 100 µM | OVCAR-8 89.5 µM | OVCAR-3 > 100 µM | HT-29 52 µM | SF-268 > 100 µM | M14 > 100 µM | UACC-62 > 100 µM | UO-31 91.4 µM | SNB-19 > 100 µM | SF-539 > 100 µM | SK-MEL-5 88.7 µM | HL-60 88.5 µM

C/C(=N/NC(N)=S)C(CN(C)C)C(C1=C(O)c2ccccc2OC1)c1ccccc1 (stereo not given)
inactive: COLO 205 > 100 µM | SK-OV-3 > 100 µM | SR > 100 µM | OVCAR-8 > 100 µM | OVCAR-3 > 100 µM | HT-29 > 100 µM | SF-268 > 100 µM | M14 > 100 µM | UACC-62 > 100 µM | UO-31 > 100 µM | SNB-19 > 100 µM | A498 > 100 µM | NCI-H522 > 100 µM | SF-539 > 100 µM | SK-MEL-5 > 100 µM | HL-60 > 100 µM

COC(=O)/C(C#N)=C1\CCC(O)N1 (stereo not given)
inactive: COLO 205 > 100 µM | SK-OV-3 > 100 µM | SR > 100 µM | OVCAR-8 > 100 µM | OVCAR-3 > 100 µM | HT-29 > 100 µM | SF-268 > 100 µM | M14 > 100 µM | UACC-62 > 100 µM | UO-31 > 100 µM | SNB-19 > 100 µM | NCI-H522 > 100 µM | SF-539 > 100 µM | HL-60 > 100 µM

Cc1nnc2n1N=C(CC(=O)c1ccc(O)cc1O)CN2N
inactive: COLO 205 19.2 µM | SK-OV-3 > 100 µM | HT-29 > 100 µM | SF-268 > 100 µM | M14 > 100 µM | UACC-62 > 100 µM | UO-31 > 100 µM | SNB-19 > 100 µM | A498 > 100 µM | SF-539 > 100 µM | SK-MEL-5 > 100 µM | HL-60 75.3 µM

O=C(O)C1CCC(=O)N1C(=O)C(Cl)c1ccccc1 (stereo not given)
inactive: COLO 205 > 100 µM | SK-OV-3 > 100 µM | OVCAR-8 > 100 µM | OVCAR-3 > 100 µM | HT-29 > 100 µM | SF-268 > 100 µM | M14 > 100 µM | UACC-62 > 100 µM | UO-31 > 100 µM | SNB-19 > 100 µM | A498 > 100 µM | NCI-H522 > 100 µM | SK-MEL-5 > 100 µM | HL-60 > 100 µM

COc1ccc(C(=O)Nc2ccccc2C#N)cc1
inactive: COLO 205 > 100 µM | SR > 100 µM | OVCAR-8 > 100 µM | OVCAR-3 > 100 µM | HT-29 > 100 µM | SF-268 > 100 µM | UACC-62 > 100 µM | SNB-19 > 100 µM | A498 > 100 µM | SF-539 > 100 µM | SK-MEL-5 > 100 µM | HL-60 54.6 µM

COc1cc(C(C)c2cc3c(cc2OCCN)OCO3)cc(OC)c1OC (stereo not given)
inactive: COLO 205 > 100 µM | SR 40.4 µM | OVCAR-8 > 100 µM | OVCAR-3 > 100 µM | HT-29 > 100 µM | SF-268 73.8 µM | M14 > 100 µM | UACC-62 35.5 µM | UO-31 50.8 µM | SNB-19 54.8 µM | A498 > 100 µM | NCI-H522 78.5 µM | SF-539 > 100 µM | SK-MEL-5 > 10 µM | HL-60 20 µM

COc1cc2ccnc([C@@H](OC(=O)c3ccccc3)c3ccc(OC)c(OC)c3OC)c2cc1OC
inactive: COLO 205 48.5 µM | SK-OV-3 > 100 µM | OVCAR-8 51.9 µM | OVCAR-3 27.8 µM | HT-29 37.7 µM | SF-268 52 µM | M14 78.3 µM | UACC-62 56.4 µM | UO-31 18.9 µM | SNB-19 53.1 µM | A498 36.1 µM | NCI-H522 27.8 µM | SF-539 47.5 µM | SK-MEL-5 23.1 µM | HL-60 41.8 µM

N=C(N)Cn1cnc2ccccc21
inactive: COLO 205 > 100 µM | SK-OV-3 > 100 µM | OVCAR-8 > 100 µM | OVCAR-3 > 100 µM | SF-268 > 100 µM | M14 > 100 µM | UACC-62 > 100 µM | UO-31 > 100 µM | SNB-19 > 100 µM | A498 > 100 µM | NCI-H522 > 100 µM | SF-539 > 100 µM | SK-MEL-5 > 100 µM | HL-60 > 100 µM

Cc1c2c(ccc3ccccc32)c[n+]2ccccc12
inactive: COLO 205 13 µM | SR 4.16 µM | OVCAR-8 12.4 µM | OVCAR-3 2.27 µM | HT-29 49.7 µM | SF-268 2.01 µM | M14 19.7 µM | UO-31 20.9 µM | SNB-19 2.07 µM | NCI-H522 4.79 µM | SF-539 13.9 µM | SK-MEL-5 3.56 µM | HL-60 28.4 µM

N=c1c2ccccc2sc2nc3ccccc3n12
inactive: COLO 205 > 100 µM | SK-OV-3 72.3 µM | SR > 100 µM | OVCAR-8 > 100 µM | HT-29 > 100 µM | SF-268 > 100 µM | UACC-62 > 100 µM | UO-31 > 100 µM | SNB-19 > 100 µM | A498 > 100 µM | NCI-H522 71.3 µM | SF-539 > 100 µM | SK-MEL-5 > 100 µM | HL-60 > 100 µM

CN(CCc1ccccn1)c1nc(=[N+](C)C)ss1
inactive: COLO 205 > 100 µM | SK-OV-3 > 100 µM | OVCAR-8 > 100 µM | OVCAR-3 66.8 µM | HT-29 38.5 µM | SF-268 > 100 µM | M14 > 100 µM | UACC-62 64.1 µM | UO-31 > 100 µM | SNB-19 > 100 µM | A498 > 100 µM | NCI-H522 8.02 µM | SF-539 > 100 µM | SK-MEL-5 > 100 µM | HL-60 > 100 µM

Nc1ccc2n[se]nc2c1
inactive: SK-OV-3 > 100 µM | SR > 100 µM | OVCAR-8 > 100 µM | HT-29 > 100 µM | SF-268 > 100 µM | M14 > 100 µM | UACC-62 > 100 µM | UO-31 > 100 µM | SNB-19 > 100 µM | A498 > 100 µM | SF-539 > 100 µM | SK-MEL-5 > 100 µM | HL-60 42.4 µM

CCCCCCCCCCCC(=O)CC(=O)c1c(O)cccc1O
inactive: COLO 205 17.3 µM | SK-OV-3 30.4 µM | SR 19.4 µM | OVCAR-8 16.6 µM | OVCAR-3 19.8 µM | HT-29 17.5 µM | SF-268 16.4 µM | M14 18 µM | UACC-62 29.4 µM | UO-31 14.5 µM | SNB-19 20 µM | NCI-H522 22.2 µM | SF-539 18.5 µM | SK-MEL-5 19.1 µM | HL-60 34.9 µM
